Assay results as given in patent publication US20250114377A1, “TWO-PRONGED TREATMENT FOR NIEMANN PICK TYPE C DISEASE” (UNIVERSITY OF NOTRE DAME DU LAC, priority 2022, published 2025).

Tests used:
[1] = tested on: lysosomal tubulation; assay: Rescue of lysosomal tubulation with purified oxysterols in LDL-depleted media (FIG. 4); type: cell-based; details: media depleted of LDL supplemented with the oxysterol; 24-HC p<0.005, 25-HC p<0.0001
Method: FIG. 4. Rescue of Lysosomal Tubulation with Purified Oxysterols. Measurements of lysosomal tubulation comparing control complete media (Control) to media depleted of LDL (LDL−) and depleted media supplemented with 27-hydroxycholesterol (27-HC), 24-hydroxycholesterol (24-HC) or 25-hydroxycholesterol (25-HC).
Fixed and live-cell imaging was performed on COS-7 cells grown in Dulbecco's Modified Eagle's Medium (DMEM) supplemented with 10% fetal bovine serum, 1% L-glutamine, and penicillin/streptomycin (Sigma-Aldrich). Transfections were performed using either Lipofectamine (Life Technologies), X-treme Gene DNA Transfection reagent (Roche, Indianapolis, IN) or Nanofect (Allstem, Richmond, CA). J774A.1 mouse macrophages were provided and cultured in the same media. Cells were tested for contamination using PCR-based test kits (Sartorius, Inc.; Cat #SMB95-1001).
Microscopy experiments were performed on a Zeiss Axiovert 200M (Thornwood, NY) run by Metamorph software (Sunnyvale, CA). Fixed and live cell imaging data was collected using either a Photometrics Coolsnap HQ or Cascade 1k CCD camera (Tucson, AZ). Timelapse imaging of cells expressing NPC1-EGFP and mCherry-StARD9 utilized a Dual-view camera (Photometrics) adapter to allow simultaneous acquisition of green and red channels at each timepoint. Kymographs were generated in Metamorph using a 1p m slice from each frame.
To test this idea, we treated either NPC1 mutant (null or I1061T) or StARD9 mutant (null or truncation mutant) cells with 27-HC in a cocktail that delivers it into the cytoplasm independent of receptor-mediated endocytosis. […] Next, we treated NPC1(−/−) mice with 27-HC by i.p. delivery.

[2] = tested on: LE/L membrane tubule projection, COS-7 cells; assay: LE/L tubule projection of NPC1-containing membranes with microtubule drugs; type: cell-based; details: FP-tagged NPC1 membranes, live-cell imaging
Text: Although it is well-accepted that mutations in NPC1 are responsible for ˜95% of human cases of NPC disease, there is less consensus on the specific cellular activities NPC1 is responsible for. For example, both the N-terminal domain and the sterol-sensing domain of NPC1 are thought to bind cholesterol and mediate the movement of lumenal cholesterol across the limiting membrane of LE/Ls. However, the lipids that over-accumulate in NPC disease are not limited to cholesterol and include oxysterols, sphingolipids, gangliosides and GPI-anchored proteins. Furthermore, the pathological accumulations of cholesterol have been proposed to affect the functional state of LE/Ls directly, including perturbing calcium uptake, autophagy/mitophagy and the thickness of the glycocalyx. However, the specific ways in which NPC1 mutations affect these parameters remain unclear. With this wide range of unknowns in mind, we generated a FP-tagged NPC1 plasmid construct for expression in mammalian cells. […] Also overlapping with previous observations, LE/L membranes incorporating FP-tagged NPC1 projected a population of long, slender, dynamic membrane tubules that emerged from the surface of stationary LE/Ls and extended towards the cell periphery (See Sterling, FIG. 1A and Sup Vid. 1). […]

| Compound | Rescue of lysosomal tubulation compared with 27-HC [1] | Effect on LE/L tubule projection [2] |
| --- | --- | --- |
| CC(C)C(O)CC[C@@H](C)[C@H]1CC[C@H]2[C@@H]3CC=C4C[C@@H](O)CC[C@]4(C)[C@H]3CC[C@]12C (stereo partly shown) [24-HC, 24-hydroxycholesterol] | significantly lower that 27-HC |  |
| C[C@H](CCCC(C)(C)O)[C@H]1CC[C@H]2[C@@H]3CC=C4C[C@@H](O)CC[C@]4(C)[C@H]3CC[C@]12C [25-HC, 25-hydroxycholesterol] | significantly lower that 27-HC |  |
| COC(=O)Nc1nc2ccc(C(=O)c3cccs3)cc2[nH]1 [nocodazole] |  | inhibited |
| CC(=O)O[C@H]1C(=O)[C@@]2(C)[C@H]([C@H](OC(=O)c3ccccc3)[C@]3(O)C[C@H](OC(=O)[C@H](O)[C@@H](NC(=O)c4ccccc4)c4ccccc4)C(C)=C1C3(C)C)[C@]1(OC(C)=O)CO[C@@H]1C[C@@H]2O [taxol] |  | inhibited |
